Tests used:
Assay in all cases: cells
LNCaP-Clone-FGC = format: functional, cell-based, Homo sapiens; details: Homo sapiens, LNCaP-Clone-FGC
SK-N-DZ = format: functional, cell-based, Homo sapiens; details: Homo sapiens, SK-N-DZ;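 further: growth inhibition of the cancer cell line, read out through a viability assay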
Description: SANGER: Inhibition of human SK-N-DZ cell growth in a cell viability assay.

LB373-MEL-D = format: functional, cell-based, Homo sapiens; details: Homo sapiens, LB373-MEL-D;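 further: growth inhibition of the cell line, read out in a cell viability assay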
Description: SANGER: Inhibition of human LB373-MEL-D cell growth in a cell viability assay.

NCI-H747 = format: functional, cell-based; details: Homo sapiens;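 further: growth inhibition of human NCI-H747 cells, read out by a cell viability assay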
697 = format: functional, cell-based; details: Homo sapiens
Description: SANGER: Inhibition of human 697 cell growth in a cell viability assay.

BB49-HNC = format: functional, cell-based, Homo sapiens; details: Homo sapiens, BB49-HNC;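 further: cell viability assay read-out, reported as inhibition of BB49-HNC cell growth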
Description: SANGER: Inhibition of human BB49-HNC cell growth in a cell viability assay.

DJM-1 = format: functional, cell-based, Homo sapiens; details: Homo sapiens, DJM-1;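 further: growth inhibition of human DJM-1 cells, read out by a cell viability assay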
Description: SANGER: Inhibition of human DJM-1 cell growth in a cell viability assay.

D-247MG = format: functional, cell-based, Homo sapiens; details: Homo sapiens, D-247MG
Description: SANGER: Inhibition of human D-247MG cell growth in a cell viability assay.

PSN1 = format: functional, cell-based, Homo sapiens; details: Homo sapiens, PSN1;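 further: suppression of growth of human PSN1 cells, read out by a cell viability assay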
Description: SANGER: Inhibition of human PSN1 cell growth in a cell viability assay.

KS-1 = format: functional, cell-based, Homo sapiens; details: Homo sapiens, KS-1;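 further: growth inhibition of KS-1 cells, read out with a cell viability assay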
Description: SANGER: Inhibition of human KS-1 cell growth in a cell viability assay.

MEG-01 = format: functional, cell-based; details: Homo sapiens;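 further: growth inhibition of MEG-01 cells, read out by a cell viability assay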
Description: SANGER: Inhibition of human MEG-01 cell growth in a cell viability assay.

BB30-HNC = format: functional, cell-based, Homo sapiens; details: Homo sapiens, BB30-HNC;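 further: growth inhibition of the cultured cell line, read out by a cell viability assay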
Description: SANGER: Inhibition of human BB30-HNC cell growth in a cell viability assay.

MV4-11 = format: functional, cell-based, MV-4-11; details: Homo sapiens;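 further: cell viability readout measuring growth inhibition of human MV-4-11 cells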
Description: SANGER: Inhibition of human MV-4-11 cell growth in a cell viability assay.

COLO-800 = format: functional, cell-based, Homo sapiens; details: Homo sapiens, COLO-800;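 further: growth inhibition of COLO-800 cells, read out with a cell viability assay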
Description: SANGER: Inhibition of human COLO-800 cell growth in a cell viability assay.

J-RT3-T3-5 = format: functional, cell-based; details: Homo sapiens;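 further: cell viability assay measuring growth inhibition of human J-RT3-T3-5 cells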
Description: SANGER: Inhibition of human J-RT3-T3-5 cell growth in a cell viability assay.

D283 Med = format: functional, cell-based, Homo sapiens; details: Homo sapiens, D283 Med
Description: SANGER: Inhibition of human D-283MED cell growth in a cell viability assay.

TE-12 = format: functional, cell-based; details: Homo sapiens;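 further: growth inhibition of TE-12 cells, read out by a cell viability assay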
Description: SANGER: Inhibition of human TE-12 cell growth in a cell viability assay.

KM12 = format: functional, cell-based, Homo sapiens; details: Homo sapiens, KM12;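 further: KM12 cell growth inhibition, read out with a cell viability assay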
Description: SANGER: Inhibition of human KM12 cell growth in a cell viability assay.

EW-18 = format: functional, cell-based; details: Homo sapiens;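 further: growth inhibition of EW-18 cells, read out by a cell viability assay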
Description: SANGER: Inhibition of human EW-18 cell growth in a cell viability assay.

U-266 = format: functional, cell-based; details: Homo sapiens
Description: SANGER: Inhibition of human U-266 cell growth in a cell viability assay.

NEC8 = format: functional, cell-based, Homo sapiens; details: Homo sapiens, NEC8;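 further: growth inhibition of human NEC8 cells, read out by a cell viability assay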
Description: SANGER: Inhibition of human NEC8 cell growth in a cell viability assay.

NB7 = format: functional, cell-based; details: Homo sapiens;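 further: growth inhibition of NB7 cells, read out with a cell viability assay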
Description: SANGER: Inhibition of human NB7 cell growth in a cell viability assay.

EC-GI-10 = format: functional, cell-based, Homo sapiens; details: Homo sapiens, EC-GI-10
Description: SANGER: Inhibition of human EC-GI-10 cell growth in a cell viability assay.

ES8 = format: functional, cell-based, Homo sapiens; details: Homo sapiens, ES8;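 further: growth inhibition of human ES8 cells, read out with a cell viability assay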
Description: SANGER: Inhibition of human ES8 cell growth in a cell viability assay.

SW982 = format: functional, cell-based; details: Homo sapiens;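 further: growth inhibition of SW982 cells, read out with a cell viability assay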
Description: SANGER: Inhibition of human SW982 cell growth in a cell viability assay.

SMILES | IC50 (LNCaP-Clone-FGC) [µM] | IC50 (SK-N-DZ) [µM] | IC50 (LB373-MEL-D) [µM] | IC50 (NCI-H747) [µM] | IC50 697 [µM] | IC50 (BB49-HNC) [µM] | IC50 (DJM-1) [µM] | IC50 (D-247MG) [µM] | IC50 (PSN1) [µM] | IC50 (KS-1) [µM] | IC50 (MEG-01) [µM] | IC50 (MV4-11) [µM] | IC50 (COLO-800) [µM] | IC50 (J-RT3-T3-5) [µM] | IC50 (D283 Med) [µM] | IC50 (TE-12) [µM] | IC50 (KM12) [µM] | IC50 (EW-18) [µM] | IC50 (U-266) [µM] | IC50 (NEC8) [µM] | other results
CC1=C2C[C@H]3[C@@H](CC=C4C[C@@H](O)CC[C@@]43C)[C@@H]2CC[C@]12O[C@@H]1C[C@H](C)CN[C@H]1[C@H]2C [CYCLOPAMINE] | > 16 | > 16 | > 16 | > 16 | > 16 | > 16 | > 16 | > 16 | > 16 | > 16 | > 16 | > 16 | > 16 | > 16 | > 16 | > 16 | > 16 | > 16 | > 16 | > 16 | IC50 (BB30-HNC): > 16 µM; IC50 (NB7): > 16 µM; IC50 (EC-GI-10): > 16 µM; IC50 (ES8): > 16 µM
CNC(=O)c1cc(Oc2ccc(NC(=O)Nc3ccc(Cl)c(C(F)(F)F)c3)cc2)ccn1 [SORAFENIB] | > 4 | > 4 | > 4 | > 4 | > 4 | > 4 | > 4 | 2.14 | > 4 | 3.88 | 1.81 | < 0.0156 | > 4 | > 4 | > 4 | > 4 | 1.02 | > 4 | > 4 | > 4 | IC50 (NB7): > 4 µM; IC50 (EC-GI-10): > 4 µM; IC50 (ES8): > 4 µM
Cc1cc(Nc2cc(N3CCN(C)CC3)nc(Sc3ccc(NC(=O)C4CC4)cc3)n2)n[nH]1 [TOZASERTIB] | > 2 | 0.962 | > 2 | > 2 | 0.0247 | > 2 | > 2 | > 2 | 0.22 | 0.238 | 0.278 | 0.0778 | > 2 | > 2 | > 2 | > 2 | 0.264 | > 2 | > 2 | > 2 | IC50 (SW982): 0.214 µM; IC50 (BB30-HNC): 0.226 µM; IC50 (NB7): > 2 µM; IC50 (EC-GI-10): > 2 µM; IC50 (ES8): 0.0461 µM
CO[C@H]1C[C@@H]2CC[C@@H](C)[C@@](O)(O2)C(=O)C(=O)N2CCCC[C@H]2C(=O)O[C@H]([C@H](C)C[C@@H]2CC[C@@H](O)[C@H](OC)C2)CC(=O)[C@H](C)/C=C(\C)[C@@H](O)[C@@H](OC)C(=O)[C@H](C)C[C@H](C)/C=C/C=C/C=C/1C [SIROLIMUS] | > 0.1 | > 0.1 | > 0.1 | > 0.1 | 0.00628 | > 0.1 | > 0.1 | > 0.1 | > 0.1 | 0.00245 | > 0.1 | 0.0837 | > 0.1 | 0.00646 | > 0.1 | > 0.1 | > 0.1 | > 0.1 | > 0.1 | > 0.1 | IC50 (SW982): > 0.1 µM; IC50 (BB30-HNC): > 0.1 µM; IC50 (NB7): > 0.1 µM; IC50 (EC-GI-10): > 0.1 µM; IC50 (ES8): > 0.1 µM
O=C(/C=C/c1ccccc1)NC(NC(=S)Nc1cccc2cccnc12)C(Cl)(Cl)Cl (stereo not drawn) [SALUBRINAL] | > 16 | > 16 | > 16 | > 16 | 3.99 | > 16 | > 16 | > 16 | > 16 | > 16 | > 16 | > 16 | > 16 | 14.7 | > 16 | 11.3 | > 16 | > 16 | > 16 | 6.05 | IC50 (BB30-HNC): > 16 µM; IC50 (NB7): > 16 µM; IC50 (EC-GI-10): > 16 µM; IC50 (ES8): 8.64 µM
CS(=O)(=O)CCNCc1ccc(-c2ccc3ncnc(Nc4ccc(OCc5cccc(F)c5)c(Cl)c4)c3c2)o1 [LAPATINIB] | > 2 | > 2 | > 2 | > 2 | > 2 | > 2 | > 2 | > 2 | > 2 | > 2 | > 2 | > 2 | > 2 | > 2 | > 2 | 0.491 | > 2 | > 2 | > 2 | > 2 | IC50 (BB30-HNC): 0.247 µM; IC50 (NB7): > 2 µM; IC50 (EC-GI-10): > 2 µM; IC50 (ES8): > 2 µM
C=C1C(=O)O[C@@H]2C3O[C@]3(C)CC/C=C(\C)CC[C@@H]12 (stereo partly drawn) | > 5 | 4.65 | > 5 | > 5 | 0.465 | > 5 | > 5 | > 5 | > 5 | > 5 | > 5 | > 5 | > 5 | > 5 | > 5 | > 5 | > 5 | > 5 | > 5 | > 5 | IC50 (BB30-HNC): > 5 µM; IC50 (NB7): > 5 µM; IC50 (EC-GI-10): > 5 µM; IC50 (ES8): > 5 µM
CCc1nc(N)nc(N)c1-c1ccc(Cl)cc1 [PYRIMETHAMINE] | > 20 | > 20 | > 20 | > 20 | 3.6 | > 20 | > 20 | > 20 | 2.86 | > 20 | 11.8 | 11.4 | > 20 | 2.22 | > 20 | > 20 | 2.32 | > 20 | 5.13 | 1.5 | IC50 (BB30-HNC): > 20 µM; IC50 (NB7): > 20 µM; IC50 (EC-GI-10): > 20 µM; IC50 (ES8): 0.897 µM

From ChEMBL document CHEMBL1201861, “Genomics of Drug Sensitity in Cancer screening data, Wellcome Trust Sanger Institute”
